# Data reported in ChEMBL document CHEMBL4052712, “Design and optimization of highly-selective, broad spectrum fungal CYP51 inhibitors” (Bioorg Med Chem Lett, 2017).
# What was measured:
# [1] = biological target: T1, Lanosterol 14-alpha demethylase (Aspergillus, UniProt B8NUK6+G4WW85+Q9P8R0); assay: Binding affinity to Aspergillus fumigatus CYP51
# T1 sequence (B8NUK6 whole entry): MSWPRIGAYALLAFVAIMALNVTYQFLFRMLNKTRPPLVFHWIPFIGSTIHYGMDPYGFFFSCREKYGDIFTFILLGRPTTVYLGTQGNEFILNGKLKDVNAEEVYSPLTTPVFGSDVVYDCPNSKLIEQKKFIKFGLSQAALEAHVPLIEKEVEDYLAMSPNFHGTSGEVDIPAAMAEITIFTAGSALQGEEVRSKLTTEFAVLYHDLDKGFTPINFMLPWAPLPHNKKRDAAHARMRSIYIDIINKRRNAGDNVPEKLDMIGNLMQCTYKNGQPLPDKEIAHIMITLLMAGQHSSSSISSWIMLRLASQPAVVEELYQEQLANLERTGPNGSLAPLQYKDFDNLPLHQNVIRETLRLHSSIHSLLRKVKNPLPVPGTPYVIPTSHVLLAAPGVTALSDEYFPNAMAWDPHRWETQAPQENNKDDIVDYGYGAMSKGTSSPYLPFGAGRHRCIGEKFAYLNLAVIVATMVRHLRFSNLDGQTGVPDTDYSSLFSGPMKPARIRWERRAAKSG
# T1 sequence (Q9P8R0 whole entry): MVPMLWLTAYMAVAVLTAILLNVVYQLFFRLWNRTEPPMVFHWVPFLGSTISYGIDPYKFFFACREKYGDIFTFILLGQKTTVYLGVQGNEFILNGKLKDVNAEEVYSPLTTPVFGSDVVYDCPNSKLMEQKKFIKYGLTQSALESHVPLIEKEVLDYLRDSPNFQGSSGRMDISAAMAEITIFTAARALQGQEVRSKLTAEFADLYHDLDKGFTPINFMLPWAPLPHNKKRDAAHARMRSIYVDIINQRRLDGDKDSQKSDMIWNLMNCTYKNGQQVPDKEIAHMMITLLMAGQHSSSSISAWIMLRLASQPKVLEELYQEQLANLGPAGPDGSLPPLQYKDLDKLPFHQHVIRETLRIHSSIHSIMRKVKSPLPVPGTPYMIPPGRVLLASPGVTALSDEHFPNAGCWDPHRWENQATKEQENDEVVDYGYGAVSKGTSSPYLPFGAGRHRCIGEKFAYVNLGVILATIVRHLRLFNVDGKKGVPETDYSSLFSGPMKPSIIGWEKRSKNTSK
# T1 sequence (G4WW85 whole entry): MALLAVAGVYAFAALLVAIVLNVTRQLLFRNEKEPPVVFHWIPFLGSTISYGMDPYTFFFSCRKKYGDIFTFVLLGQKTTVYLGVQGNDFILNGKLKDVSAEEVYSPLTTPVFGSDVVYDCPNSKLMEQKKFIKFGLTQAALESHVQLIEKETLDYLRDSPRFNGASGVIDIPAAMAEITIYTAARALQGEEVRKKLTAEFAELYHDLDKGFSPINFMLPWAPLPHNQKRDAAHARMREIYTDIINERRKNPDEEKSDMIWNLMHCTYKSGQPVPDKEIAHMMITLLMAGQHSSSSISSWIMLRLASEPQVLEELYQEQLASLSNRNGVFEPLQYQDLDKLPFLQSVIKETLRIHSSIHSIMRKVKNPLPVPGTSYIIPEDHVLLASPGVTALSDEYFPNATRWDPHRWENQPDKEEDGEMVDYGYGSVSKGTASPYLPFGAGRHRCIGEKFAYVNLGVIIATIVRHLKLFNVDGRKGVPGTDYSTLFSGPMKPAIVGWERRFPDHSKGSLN
# [2] = biological target: T2, Cytochrome P450 11B1, mitochondrial (Homo sapiens, UniProt P15538); assay: Inhibition of CYP11B1 in human hepatocyte microsomes using deoxycortisol substrate by HPLC/MS/MS method; assay type: ADME
# T2 sequence (P15538 whole entry): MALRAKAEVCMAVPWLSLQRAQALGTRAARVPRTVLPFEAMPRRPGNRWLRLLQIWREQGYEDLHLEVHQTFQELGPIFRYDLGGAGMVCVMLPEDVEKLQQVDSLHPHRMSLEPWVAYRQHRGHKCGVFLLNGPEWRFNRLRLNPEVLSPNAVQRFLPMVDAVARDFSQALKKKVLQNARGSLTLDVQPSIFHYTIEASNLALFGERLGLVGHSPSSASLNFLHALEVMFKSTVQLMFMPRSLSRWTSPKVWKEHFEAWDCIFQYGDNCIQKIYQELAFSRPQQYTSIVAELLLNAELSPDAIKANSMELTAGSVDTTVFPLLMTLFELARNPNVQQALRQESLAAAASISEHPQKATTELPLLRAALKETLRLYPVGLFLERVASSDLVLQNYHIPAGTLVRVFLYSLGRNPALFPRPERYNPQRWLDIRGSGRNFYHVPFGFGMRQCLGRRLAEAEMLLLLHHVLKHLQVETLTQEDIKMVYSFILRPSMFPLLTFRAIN
# Cytochrome P450 2C9 = Cytochrome P450 2C9 (Homo sapiens, UniProt P11712); assay: Inhibition of CYP2C9 in human hepatocyte microsomes using diclofenac substrate by HPLC/MS/MS method; assay type: ADME
# Chain of Cytochrome P450 2C9 (P11712 whole entry): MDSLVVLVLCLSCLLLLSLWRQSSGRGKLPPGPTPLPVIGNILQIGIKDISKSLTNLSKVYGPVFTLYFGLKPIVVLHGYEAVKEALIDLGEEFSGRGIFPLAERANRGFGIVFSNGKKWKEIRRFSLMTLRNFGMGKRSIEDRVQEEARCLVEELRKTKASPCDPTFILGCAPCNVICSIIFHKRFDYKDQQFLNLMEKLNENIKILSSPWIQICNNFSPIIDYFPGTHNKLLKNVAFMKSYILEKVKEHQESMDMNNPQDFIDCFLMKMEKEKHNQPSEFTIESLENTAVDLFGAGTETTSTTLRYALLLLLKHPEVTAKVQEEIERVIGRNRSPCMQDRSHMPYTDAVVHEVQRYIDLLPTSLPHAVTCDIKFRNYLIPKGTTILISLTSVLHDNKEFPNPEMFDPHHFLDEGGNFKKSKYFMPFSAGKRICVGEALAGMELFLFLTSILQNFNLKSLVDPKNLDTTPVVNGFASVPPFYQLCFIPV
# Kidney = assay: Drug level in Swiss albino mouse kidney at 5 mg/kg, po after 48 hrs assessed as relative Cmax level relative to plasma drug level by HPLC/MS/MS method; assay type: ADME, organism-based; details: other tissue
# Lung [3] = assay: Drug level in Swiss albino mouse lung at 5 mg/kg, po after 48 hrs assessed as relative Cmax level relative to plasma drug level by HPLC/MS/MS method; assay type: ADME, organism-based; details: in vivo
# Lung [4] = assay: Drug level in Swiss albino mouse lung at 5 mg/kg, po after 48 hrs assessed as relative AUC (48 hrs) level relative to plasma drug level by HPLC/MS/MS method; assay type: ADME, organism-based; details: other tissue
# [5] = Tmax in Swiss albino mouse at 5 mg/kg, po measured during 0.5 to 48 hrs post dose by HPLC/MS/MS method; assay type: ADME, organism-based; details: in vivo
# [6] = biological target: Cytochrome P450 2C19, Homo sapiens (UniProt P33261); assay: Inhibition of CYP2C19 in human hepatocyte microsomes using omeprazole substrate by HPLC/MS/MS method
# Chain of Cytochrome P450 2C19, Homo sapiens (P33261 whole entry, looked up): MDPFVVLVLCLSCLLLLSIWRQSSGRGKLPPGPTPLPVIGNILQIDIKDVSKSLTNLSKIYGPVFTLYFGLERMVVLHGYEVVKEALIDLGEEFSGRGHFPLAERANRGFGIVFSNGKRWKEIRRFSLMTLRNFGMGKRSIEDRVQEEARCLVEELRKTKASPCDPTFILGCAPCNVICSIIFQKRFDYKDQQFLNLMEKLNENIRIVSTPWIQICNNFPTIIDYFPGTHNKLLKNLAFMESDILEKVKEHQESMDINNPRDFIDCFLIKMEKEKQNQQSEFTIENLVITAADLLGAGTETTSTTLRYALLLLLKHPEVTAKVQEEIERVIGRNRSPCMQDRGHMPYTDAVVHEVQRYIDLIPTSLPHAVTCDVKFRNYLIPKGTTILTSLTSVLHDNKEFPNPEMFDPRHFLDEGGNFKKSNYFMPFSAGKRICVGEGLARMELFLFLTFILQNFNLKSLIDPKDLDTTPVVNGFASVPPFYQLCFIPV
# [7] = Half life in Swiss albino mouse plasma at 5 mg/kg, po measured during 0.5 to 48 hrs post dose by HPLC/MS/MS method; assay type: ADME, organism-based
# Brain = assay: Drug level in Swiss albino mouse brain at 5 mg/kg, po after 48 hrs assessed as relative Cmax level relative to plasma drug level by HPLC/MS/MS method; assay type: ADME, organism-based
smiles,measurement,setting,value
"N#Cc1ccc(COc2ccc(C#Cc3ccc(C(F)(F)C(O)(Cn4cnnn4)c4ccc(F)cc4F)nc3)cc2)cc1 (single isomer, unassigned; (+))",Kd,[1],0.013 µM
same,IC50,[2],> 100 µM
same,IC50,Cytochrome P450 2C9,> 200 µM
same,Drug uptake,Kidney,270%
same,Drug uptake,Lung [3],116%
same,Drug uptake,Lung [4],94%
same,Tmax,[5],4 h
same,IC50,[6],138 µM
same,half-life,[7],24 h
same,Drug uptake,Brain,58%
